This is an account of results in patent publication US10240133B2, “ERK-derived peptides and uses thereof” (Yeda Research and Development Co. Ltd., priority 2013, dated 2019).

“Also recorded” adds a separate entry of the source.

One data set relates to ERK1/2. Put plainly: Western blotting of ERK phosphorylation (TEY, NTS). It counts as cell-based. The procedure: (A) EPE peptide prevents ERK1/2-importin7 interaction. HeLa cells were serum starved (0.1%, 16 hours), pretreated with EPE peptide, scrambled peptide (10 μM, 2 hours) or DMSO, and then stimulated with TPA (250 nM, 15 min). ERK1 were precipitated with αgERK1 Ab; importin7 co-immunoprecipitated with ERK1 was detected by WB with αimportin7 Ab. […] T47D, HeLa, MDA-MB-231 and A2352 cells were serum starved (0.1%, 16 hours), pretreated with EPE peptide, scrambled peptide (10 μM, 2 hours) or DMSO control, and then stimulated with TPA (250 nM, indicated times). Cell extracts were subjected to Western blot analysis with the indicated Abs. (C) EPE peptide inhibits phosphorylation of c-Myc and Elk1 in B-Raf melanomas. A2158 and A2352 cells were treated with scrambled and EPE peptide for two hours and then stimulated with the indicated concentration of TPA for 30 min. […] (D) Quantification of some of the results in B and C. […]
(i) Preparation of cellular extracts for Western Blotting: Cells were rinsed twice with ice-cold PBS and scraped into Radio-immunoprecipitation assay buffer (RIPA; 137 mM NaCl, 20 mM Tris (pH 7.4), 10% glycerol, 1% Triton X-100, 0.5% deoxycholate, 0.1% SDS, 2 mM EDTA, 1 mM PMSF, and 20 μM leupeptin). The extracts were centrifuged (20,000×g, 15 min, 4° C.), and the supernatants were further analyzed by Western blotting. […]
(In general: In western blotting, separated proteins are transferred to a membrane and probed.)

The test system of a further data set is HCT-116 xenograft. The experiment in a line: Tumor xenograft growth. It counts as in vivo, CD-1 nude mice. The following applies: i.v. tail vein, 3 times a week. The procedure: (§1) FIGS. 6A-6B illustrate that the EPE peptide prevents the growth of human tumor xenografts. CD-1 nude mice were inoculated with MDA-MB-231, LOXIMVI and HCT-116 cells, and SKID mice were inoculated with A2352 cells. Upon tumors establishment, the mice were treated intravenously with the DMSO as well as EPE or Scr peptides in the indicated doses, 3 times a week. The results are averages of 5 mice in each experimental group. The X, Y, Z dimensions of the tumors were measured with a caliper, and the volume was calculated accordingly. The significance of all experiments was at least P<0.001. (B) The EPE peptide prevents tumor recurrence on melanoma xenograft. SCID mice were inoculated with A2352 cells. Upon establishment of tumors mice were treated intravenously with 15 mg/kg EPE peptide (n=7) or intraperitonealy with 15 mg/kg PLX4032 (n=5), at the indicated dose 3 times a week. Tumor size was recorded at the same time using a caliper. Following 3 weeks of treatment, mice were kept for further evaluation monitoring for any tumor recurrence of the effective treated melanoma xenografts. Experiment was concluded 110 days post inoculation (11 weeks after the last treatment) and the overall state of the animals was evaluated. sac=sacrificed, recur=recurrence, met=metastasis.
(§2) Tumor dimensions were measured with a digital sliding caliper.

Another data set deals with LOXIMVI xenograft. The experiment in a line: Tumor xenograft growth. It is filed as in vivo, CD-1 nude mice. The following applies: i.v. tail vein, 3 times a week. The procedure: as §1, §2
For a further data set, the system named is MDA-MB-231 xenograft. The experiment in a line: Tumor xenograft growth. It is filed as in vivo, CD-1 nude mice. The following applies: i.v. tail vein, 3 times a week. The procedure: as §1, §2
Data set [1] has as its system low passage A2352 B-Raf melanoma xenograft. Put plainly: Tumor xenograft growth. It is filed as in vivo, SCID mice. The following applies: tail vein administration. The procedure:
as §1, §2

The next data set deals with ERK. The experiment in a line: Immunohistochemistry of ERK localization in xenograft tumors. It is filed as in vivo, mice. To be noted: MDA-MB-231 and LOXIMVI xenografts, anti ERK Ab. The source says: FIGS. 10A-10B illustrate that the EPE peptide causes cytoplasmatic localization of ERK in xenografts. FIG. 10A: Photographs illustrating that EPE and Scr peptide as well as DMSO-treated MDA-MB-231 and LOXIMVI xenografts were immunostained with αgERK Ab. FIG. 10B presents bar-graphs representing number of cells with cytoplasmatic/nuclear ERK staining calculated in 10 random microscopic fields.

The next data set concerns A2352 xenografts. The experiment in a line: Tumor disappearance and recurrence in A2352 xenografts, EPE peptide compared with PLX4032. It counts as in vivo, SCID mice. The procedure:
as §1, §2

Turning to “GQLNHILGILGEPEQED (Synthetic peptide (EPE)) [EPE peptide, NTS-derived peptide with phosphomimetic EPE motif]”, the “NTS phosphorylation (by CK2) of ERK1/2” value in the data set on ERK1/2 (T47D, HeLa, MDA-MB-231 and A2352 cells) was “only slightly affected; also recorded: prevents ERK1/2's NTS”. The “activatory ERK-TEY phosphorylation” value in the data set with ERK1/2 (four distinct cell lines) is “no effect”. For the same sequence, the “growth of tumor xenograft” value in the data set on HCT-116 xenograft is given as “to some extent”; in the data set with LOXIMVI xenograft, “dose dependent inhibition of the growth”; with MDA-MB-231 xenograft, “dose dependent inhibition of the growth”. The “time to complete eradication of melanoma xenograft” value in data set [1] was no more than 2 weeks. For the same sequence, in the data set on ERK, the “ERK localization in xenograft tumor sections” value was “localized almost exclusively in the cytoplasm”. Also, in the data set with A2352 xenografts (15 mg/kg, 3 times a week), the “time to complete disappearance of tumors” value lay within 10 to 23 days. Further, the tumor disappearance entry in the data set on A2352 xenografts (15 mg/kg, 3 times a week, 3 weeks, EPE i.v. (n=7), PLX4032 i.p. (n=5), initial ~80 mm3 tumors) was “complete disappearance of the tumors of all mice”. The “overall state of animals after treatment” value in the data set on A2352 xenografts (follow up after last treatment, incl. 5 other animals in a repeating experiment) is listed as “remained healthy up to 11 weeks after treatment”. Further, in the data set on A2352 xenografts (follow up for up to 11 weeks after last treatment), the “mice with tumor recurrence” value was “None”.
